Data reported in US20230062100A1, “SUBSTITUTED AMINOQUINOLONES AS DGKALPHA INHIBITORS FOR IMMUNE ACTIVATION” (Bayer Aktiengesellschaft, priority 2019, published 2023).

Test system: GBM tumors
Assay: not given
Details: concurrent administration; literature report; cited from earlier work

In the case of `Cc1nc2sccn2c(=O)c1CCN1CCC(=C(c2ccccc2)c2ccc(F)cc2)CC1` [Example R59022], the “growth of intracranially injected GBM tumors” value is given as “decreased growth”.

Biological target: T1, DGKα (Homo sapiens, UniProt P23743)
Assay: not given
Details: literature report; cited from earlier work
Target sequence in this assay (P23743 whole entry, species assumed): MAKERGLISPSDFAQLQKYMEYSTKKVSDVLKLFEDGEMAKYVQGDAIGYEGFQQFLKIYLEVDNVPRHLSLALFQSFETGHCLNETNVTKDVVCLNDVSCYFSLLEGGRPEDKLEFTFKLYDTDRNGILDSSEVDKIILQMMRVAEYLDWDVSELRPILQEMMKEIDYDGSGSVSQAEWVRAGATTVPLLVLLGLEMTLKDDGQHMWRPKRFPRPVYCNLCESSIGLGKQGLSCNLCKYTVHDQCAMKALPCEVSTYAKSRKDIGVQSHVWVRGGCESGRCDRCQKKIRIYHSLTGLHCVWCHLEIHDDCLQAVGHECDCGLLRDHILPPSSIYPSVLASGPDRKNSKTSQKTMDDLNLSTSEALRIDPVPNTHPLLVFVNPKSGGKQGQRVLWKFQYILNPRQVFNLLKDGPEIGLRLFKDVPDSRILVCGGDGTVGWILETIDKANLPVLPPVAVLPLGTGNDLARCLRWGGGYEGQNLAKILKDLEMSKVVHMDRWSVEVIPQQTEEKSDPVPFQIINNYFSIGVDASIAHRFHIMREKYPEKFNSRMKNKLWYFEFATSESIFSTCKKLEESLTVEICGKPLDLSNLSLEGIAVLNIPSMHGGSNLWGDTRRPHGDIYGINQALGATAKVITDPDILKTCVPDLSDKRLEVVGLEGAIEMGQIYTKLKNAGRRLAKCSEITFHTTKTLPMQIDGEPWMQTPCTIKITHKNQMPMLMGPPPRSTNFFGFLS

In the case of `Cc1nc2sccn2c(=O)c1CCN1CCC(=C(c2ccc(F)cc2)c2ccc(F)cc2)CC1` [Ritanserin], the “inhibitory activity on DGKα” value is listed as “comparable activity”.
In the case of `O=C1/C(=C\C=C\c2ccco2)SC(=S)N1NS(=O)(=O)c1ccccc1` [CU-3], the “inhibitory activity on DGKα” value is given as “sub-micromolar”.
For `Cc1ccc2c(C(=O)CN3CCN(C(=O)c4ccco4)CC3)c(C)[nH]c2c1` [AMB639752], the “inhibitory activity on DGKα” value is listed as “micromolar”.

Biological target: T1, DGKα
Assay: Human DGKα kinase activity inhibition assay (ADP-Glo)
Format: biochemical
Details: in vitro human DGKα kinase activity inhibition assay
Summary of the method: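 C-terminally FLAG-tagged full-length human DGKα from baculovirus/insect cells (typically ~0.1 nM) phosphorylated 1,2-dioleoyl-sn-glycerol in octyl-β-D-glucopyranoside micelles in MOPS pH 7.4. ADP formed was quantified by ADP-Glo luminescence after 1 h ATP depletion at 22 °C.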
Target sequence in this assay (P23743 with tags, fused parts or gaps): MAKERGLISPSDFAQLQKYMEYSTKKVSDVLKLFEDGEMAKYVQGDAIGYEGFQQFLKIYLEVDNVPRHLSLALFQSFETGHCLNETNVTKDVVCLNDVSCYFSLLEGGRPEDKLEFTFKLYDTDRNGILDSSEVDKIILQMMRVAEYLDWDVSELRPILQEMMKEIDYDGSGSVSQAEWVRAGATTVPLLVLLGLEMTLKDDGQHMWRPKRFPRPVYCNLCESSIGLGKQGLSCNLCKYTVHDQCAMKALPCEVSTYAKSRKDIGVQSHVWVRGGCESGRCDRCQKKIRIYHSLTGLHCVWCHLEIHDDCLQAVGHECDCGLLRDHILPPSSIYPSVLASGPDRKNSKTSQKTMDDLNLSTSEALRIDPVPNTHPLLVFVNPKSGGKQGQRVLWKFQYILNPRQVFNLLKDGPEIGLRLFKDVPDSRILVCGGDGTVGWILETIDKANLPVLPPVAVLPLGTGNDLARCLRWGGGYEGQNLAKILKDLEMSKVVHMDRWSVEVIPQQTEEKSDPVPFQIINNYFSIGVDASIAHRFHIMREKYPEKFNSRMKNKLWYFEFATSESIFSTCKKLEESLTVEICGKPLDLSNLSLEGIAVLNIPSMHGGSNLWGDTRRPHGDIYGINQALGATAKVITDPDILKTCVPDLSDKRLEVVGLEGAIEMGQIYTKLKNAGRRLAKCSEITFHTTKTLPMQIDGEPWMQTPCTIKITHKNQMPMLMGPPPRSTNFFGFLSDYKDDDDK

In order of rising IC50:
1. Cn1c(=O)c(C#N)c(N2CCC(Oc3ccc(OC(F)(F)F)cc3)CC2)c2cc(Br)ccc21 [Example 139, 6-bromo-1-methyl-2-oxo-4-{4-[4-(trifluoromethoxy)phenoxy]piperidin-1-yl}-1,2-dihydroquinoline-3-carbonitrile]  2.5 nM
2. COCCOc1ccc2c(N3CCC(Oc4ccc(OC(F)(F)F)cc4)CC3)c(C#N)c(=O)n(C)c2c1 [Example 81, 7-(2-methoxyethoxy)-1-methyl-2-oxo-4-{4-[4-(trifluoromethoxy)phenoxy]piperidin-1-yl}-1,2-dihydroquinoline-3-carbonitrile]  3 nM
3. Cn1c(=O)c(C#N)c(N2CCC(Oc3ccc(OC(F)F)cc3)CC2)c2ccccc21 [Example 39, 4-{4-[4-(difluoromethoxy)phenoxy]piperidin-1-yl}-1-methyl-2-oxo-1,2-dihydroquinoline-3-carbonitrile]  4 nM
4. Cc1ccc2c(N3CCC(Oc4ccc(OC(F)(F)F)cc4)CC3)c(C#N)c(=O)n(C)c2c1 [Example 67, 1,7-dimethyl-2-oxo-4-{4-[4-(trifluoromethoxy)phenoxy]piperidin-1-yl}-1,2-dihydroquinoline-3-carbonitrile]  6.4 nM
5. Cc1ccccc1OC1CCN(c2c(C#N)c(=O)n(C)c3ccccc23)CC1 [Example 14, 1-methyl-4-[4-(2-methylphenoxy)piperidin-1-yl]-2-oxo-1,2-dihydroquinoline-3-carbonitrile]  14 nM
6. CN(C)c1ccc(OC2CCN(c3c(C#N)c(=O)n(C)c4ccccc34)CC2)cc1 [Example 45, 4-{4-[4-(dimethylamino)phenoxy]piperidin-1-yl}-1-methyl-2-oxo-1,2-dihydroquinoline-3-carbonitrile]  31 nM
7. Cn1c(=O)c(C#N)c(N2CCC(Sc3ccccc3)CC2)c2cc(C3CC3)ccc21 [Example 147, 6-cyclopropyl-1-methyl-2-oxo-4-[4-(phenylsulfanyl)piperidin-1-yl]-1,2-dihydroquinoline-3-carbonitrile]  32 nM
8. Cn1c(=O)c(C#N)c(N2CCC(Oc3ccccc3Cl)CC2)c2ccccc21 [Example 16, 4-[4-(2-chlorophenoxy)piperidin-1-yl]-1-methyl-2-oxo-1,2-dihydroquinoline-3-carbonitrile]  33 nM
9. Cn1c(=O)c(C#N)c(N2CCC(Oc3ccc(-n4ccnc4)cc3)CC2)c2ccccc21 [Example 19, 4-{4-[4-(1H-imidazol-1-yl)phenoxy]piperidin-1-yl}-1-methyl-2-oxo-1,2-dihydroquinoline-3-carbonitrile]  64 nM
10. Cn1c(=O)c(C#N)c(N2CCC(Oc3ccc(F)cc3)CC2)c2cc(C3CC3)ccc21 [Example 148, 6-cyclopropyl-4-[4-(4-fluorophenoxy)piperidin-1-yl]-1-methyl-2-oxo-1,2-dihydroquinoline-3-carbonitrile]  73 nM
11. Cn1c(=O)c(C#N)c(N2CCC(Oc3cccc4ocnc34)CC2)c2ccccc21 [Example 27, 4-{4-[(1,3-benzoxazol-4-yl)oxy]piperidin-1-yl}-1-methyl-2-oxo-1,2-dihydroquinoline-3-carbonitrile]  318 nM
12. CN(C)C(=O)c1ccc(OC2CCN(c3c(C#N)c(=O)n(C)c4ccccc34)CC2)cc1 [Example 26, 4-{[1-(3-cyano-1-methyl-2-oxo-1,2-dihydroquinolin-4-yl)piperidin-4-yl]oxy}-N,N-dimethylbenzamide]  415 nM
13. Cn1c(=O)c(C#N)c(N2CCC(Oc3cccc(OC(F)(F)F)c3)CC2)c2ccc(P(C)(C)=O)cc21 [Example 78, 7-(dimethylphosphoryl)-1-methyl-2-oxo-4-{4-[3-(trifluoromethoxy)phenoxy]piperidin-1-yl}-1,2-dihydroquinoline-3-carbonitrile]  1130 nM
